This note sets out measurements from patent publication US9718837B2, “Nitrogen-containing heterocyclic ring substituted dihydroartemisinin derivatives and use thereof” (Shenyang Pharmaceutical University, priority 2013, dated 2017).

The test system of test [1] is Human Breast Cancer Cells (MCF-7). Put plainly: Cell growth inhibition by direct cell counting, MCF-7. In kind it is cell-based. To be noted: read-out: IG50 MCF-7. The procedure:
(§1) Cells were taken out carefully from liquid nitrogen (Frozen pipes), and the cell freezing medium was thawed rapidly in water bath at 37° C. in order to rapidly pass through the temperature range of 0 to 5° C. within which the cell is easily damaged. Cell suspension was sucked with pipette gun and put it into centrifugal tubes under sterile condition, then was centrifuged for 3 min at 1300 r/min. The supernatant was gently discarded, and then added with a fresh medium to pipette and mix the cells. Finally, the cells were transferred into culture flasks, and cultured in a carbon dioxide incubator. The medium was changed once after 24 h.
(§2) After resuscitation, the cells were passed for 2-3 generations till they became stable, then they were used for the experiments. Each passage was based on the standard that all cells were spread over the bottoms of culture flasks.
(§3) Cell suspensions of a certain density (5×10^4 cells/mL) were plated at 24-well plate, 2 mL/well. Different concentration of drugs were added thereto, and incubated or some time. Then, cells were counted under the microscope. The ratio of total number of cells in test group to the total number of cells in control group is the cell growth inhibition rate under the concentration condition. The total number of cells in cell suspension, which were treated by drugs, could be counted by blood count board. Inhibition rate was calculated using the formula: […]
(§4) According to cell growth inhibition rate of each concentration of drugs, half inhibitory concentration could be calculated. (IG50 is the drug concentration, when cell growth inhibition rate was 50%.)
(§5) 7) The Results of the Growth Inhibitory Activity of the Compounds on Human Breast Cancer Cells (MCF-7) and Human Multidrug Resistant Breast Cancer Cells (MCF-7/Adr) were Listed in Table 3.

Test [2] deals with Human Multidrug Resistant Breast Cancer Cells (MCF-7/Adr). Kind of test: Cell growth inhibition by direct cell counting, MCF-7/Adr. The conditions noted are these: MCF-7/Adr multidrug resistant cells; read-out: IG50 MCF-7/Adr. Format: cell-based. How it is done:
as §1, §2, §3, §4, §5

Read-outs that look alike come from different tables or passages of the source.

On to `CC1CCC2C(C)[C@@H](Oc3ccc(C=CC(=O)Oc4ccc(/C=C/C(=O)N5CCN(c6ncccn6)CC5)cc4)cc3)OC3OC4(C)CCC1C32OO4` (stereo partly drawn) [Example 32, 4-[(10S)-dihydroartemisinin-10-O-yl]phenyl-acrylic acid-4-[3-oxo-3-(4-(2-pyrimidinyl)piperazin-1-yl)-1-(E)-propen-1-yl]phenyl ester], for which, in test [1] (MCF-7 cells), the IC50 was 408 nM.

Consider `CC1CCC2C(C)[C@@H](Oc3ccc(CC(=O)N4CCN(C5CCCCC5)CC4)cc3)OC3OC4(C)CCC1C32OO4` (stereo partly drawn) [Example 46, (10S)—O-{4-[2-(4-cyclohexylpiperazin-1-yl)-2-oxoethyl]phenyl}-dihydroartemisinin], for which the IC50 in test [1] (MCF-7 cells) worked out at 1120 nM; in test [2] it was 98 nM.

On to `COc1ccccc1N1CCN(Cc2ccc(O[C@H]3O[C@@H]4O[C@@]5(C)CC[C@H]6[C@H](C)CC[C@@H]([C@H]3C)[C@@]46OO5)cc2)CC1` [Example 11, (10)-O-[4-[(4-(2-methoxyphenyl)piperazin-1-yl)methyl]phenyl](10S)-dihydroartemisinin], for which the IC50 is 475 nM in test [1] (MCF-7 cells) and 456 nM in test [2].

Turning to `CC1CCC2C(C)[C@@H](Oc3ccc(/C=C/C(=O)N4CCN(c5cccc(C(F)(F)F)c5)CC4)cc3)OC3OC4(C)CCC1C32OO4` (stereo partly drawn) [Example 28, (10S)—O-{4-[3-oxo-3-(4-(3-trifluoromethylphenyl)piperazin-1-yl)-1-(E)-propen-1-yl]phenyl}-dihydroartemisinin], in test [1] (MCF-7 cells), the IC50 worked out at 91.1 nM.

With `CC1CCC2C(C)[C@@H](Oc3ccc(/C=C/C(=O)N4CCOCC4)cc3)OC3OC4(C)CCC1C32OO4` (stereo partly drawn) [Example 21, (10S)—O-{4-[3-oxo-3-(morpholin-4-yl)-1-(E)-propen-1-yl]phenyl}-dihydroartemisinin], the IC50 in test [1] (MCF-7 cells) turned out to be 241 nM.

Consider `C[C@H]1[C@@H](Oc2ccc(CN3CCN(C)CC3)cc2)O[C@@H]2O[C@@]3(C)CC[C@H]4[C@H](C)CC[C@@H]1[C@@]24OO3` [Example 12, (10S)—O-[4-((4-methylpiperazin-1-yl)methyl)phenyl]-dihydroartemisinin], for which the results for the IC50 in test [1] (MCF-7 cells) and in test [2] were 1050 nM and 190 nM, respectively.

For the molecule `CC1CCC2C(C)[C@@H](Oc3ccc(CC(=O)N4CCN(c5ccc(F)cc5)CC4)cc3)OC3OC4(C)CCC1C32OO4` (stereo partly drawn) [Example 42, (10S)—O-{4-[2-[4-(4-fluorophenyl)piperazin-1-yl]-2-oxoethyl]phenyl}-dihydroartemisinin], the IC50 is 1090 nM in test [1] (MCF-7 cells) and 11.2 nM in test [2].

Regarding `C[C@H]1[C@@H](Oc2ccc(CN3CCN(c4ccc(F)cc4)CC3)cc2)O[C@@H]2O[C@@]3(C)CC[C@H]4[C@H](C)CC[C@@H]1[C@@]24OO3` [Example 13], the IC50 in test [1] (MCF-7 cells) stood at 267 nM; in test [2] it was 330 nM.

In the case of `COc1ccccc1N1CCN(C(=O)Cc2ccc(O[C@H]3OC4OC5(C)CCC6C(C)CCC(C3C)C46OO5)cc2)CC1` (stereo partly drawn) [Example 41, (10S)—O-{4-[2-[4-(2-methoxyphenyl)piperazin-1-yl]-2-oxoethyl]phenyl}-dihydroartemisinin], the IC50 was determined as 790 nM in test [1] (MCF-7 cells) and 29.8 nM in test [2].

Take `C[C@H]1[C@@H](Oc2ccc(Cn3cncn3)cc2)O[C@@H]2O[C@@]3(C)CC[C@H]4[C@H](C)CC[C@@H]1[C@@]24OO3` [Example 4, (10S)—O-[4-((1,2,4-triazol-1-yl)methyl)phenyl]-dihydroartemisinin]: the values for the IC50 in test [1] (MCF-7 cells) and in test [2] were 1620 nM and 476 nM, respectively.

In the case of `CC1CCC2C(C)[C@@H](Oc3ccc(/C=C/C(=O)N4CCCCC4)cc3)OC3OC4(C)CCC1C32OO4` (stereo partly drawn) [Example 22, (10S)—O-{4-[3-oxo-3-(piperidin-1-yl)-1-(E)-propen-1-yl]phenyl}-dihydroartemisinin], in test [1] (MCF-7 cells), the IC50 was 6.07 nM.

Consider `C[C@H]1[C@@H](Oc2ccc(/C=C/C(=O)N3CCC(N4CCCCC4)CC3)cc2)O[C@@H]2O[C@@]3(C)CC[C@H]4[C@H](C)CC[C@@H]1[C@@]24OO3` [Example 23], for which the IC50 in test [1] (MCF-7 cells) stood at 586 nM.

As for `CC1CCC2C(C)[C@@H](Oc3cccc(CN4CCN(Cc5ccccc5)CC4)c3)OC3OC4(C)CCC1C32OO4` (stereo partly drawn) [Example 19], the IC50 worked out at 1190 nM in test [1] (MCF-7 cells) and 1090 nM in test [2].

As for `CC1CCC2C(C)[C@@H](Oc3ccc(CC(=O)N4CCN(C)CC4c4ccccc4)cc3)OC3OC4(C)CCC1C32OO4` (stereo partly drawn) [Example 43, (10S)—O-{4-[2-(4-methyl-2-phenylpiperazin-1-yl)-2-oxoethyl]phenyl}-dihydroartemisinin], the IC50 amounted to 2290 nM in test [1] (MCF-7 cells) and 1060 nM in test [2].

`CC1CCN(C(=O)Cc2ccc(O[C@H]3OC4OC5(C)CCC6C(C)CCC(C3C)C46OO5)cc2)CC1` (stereo partly drawn) [Example 36, (10S)—O-{4-[2-(4-methylpiperidin-1-yl)-2-oxoethyl]phenyl}-dihydroartemisinin]: the IC50 in test [1] (MCF-7 cells) is 549 nM; in test [2] it was 104 nM.

As for `COc1ccccc1N1CCN(C(=O)/C=C/c2ccc(O[C@H]3O[C@@H]4O[C@@]5(C)CC[C@H]6[C@H](C)CC[C@@H]([C@H]3C)[C@@]46OO5)cc2)CC1` [Example 27, (10S)—O-{4-[3-oxo-3-(4-(2-methoxyphenyl)piperazin-1-yl)-1-(E)-propen-1-yl]phenyl}-dihydroartemisinin], in test [1] (MCF-7 cells), the IC50 turned out to be 322 nM.

`CC1CCC2C(C)[C@@H](Oc3ccc(/C=C/C(=O)N4CCN(c5ccccn5)CC4)cc3)OC3OC4(C)CCC1C32OO4` (stereo partly drawn) [Example 30, (10S)—O-{4-[3-oxo-3-(4-(2-pyridyl)piperazin-1-yl)-1-(E)-propen-1-yl]phenyl}-dihydroartemisinin]: in test [1] (MCF-7 cells), the IC50 was determined as 263 nM.

Consider “(10S)—O-{4-[2-[4-(pyrimidin-2-yl)piperazin-1-yl]-2-oxoethyl]phenyl}-dihydroartemisinin [Example 45]”, for which the IC50 in test [1] (MCF-7 cells) is 1490 nM; in test [2] it was 110 nM.

With `CC1CCC2C(C)[C@@H](Oc3ccc(CN4CCN(c5ncccn5)CC4)cc3)OC3OC4(C)CCC1C32OO4` (stereo partly drawn) [Example 15, 10-O-[4-[(4-(2-pyrimidinyl)piperazin-1-yl)methyl]phenyl]-(10S)-dihydroartemisinin], the IC50 was determined as 443 nM in test [1] (MCF-7 cells) and 1660 nM in test [2].

Consider `C[C@H]1[C@@H](Oc2ccc(CN3CCN(c4ccccn4)CC3)cc2)O[C@@H]2O[C@@]3(C)CC[C@H]4[C@H](C)CC[C@@H]1[C@@]24OO3` [Example 14, 10-O-[4-[(4-(2-pyridyl)piperazin-1-yl)methyl]phenyl]-(10S)-dihydroartemisinin], for which the IC50 amounted to 1280 nM in test [1] (MCF-7 cells) and 1380 nM in test [2].

As to `CC1CCC2C(C)[C@@H](Oc3ccc(/C=C/C(=O)N4CCN(Cc5ccccc5)CC4)cc3)OC3OC4(C)CCC1C32OO4` (stereo partly drawn) [Example 29, (10S)—O-{4-[3-oxo-3-(4-benzylpiperazin-1-yl)-1-(E)-propen-1-yl]phenyl}-dihydroartemisinin], the IC50 in test [1] (MCF-7 cells) stood at 15.6 nM.

Turning to `CC1CCCCN1C(=O)Cc1ccc(O[C@H]2O[C@@H]3O[C@@]4(C)CC[C@H]5[C@H](C)CC[C@@H]([C@H]2C)[C@@]35OO4)cc1` (stereo partly drawn) [Example 37, (10S)—O-{4-[2-(2-methylpiperidin-1-yl)-2-oxoethyl]phenyl}-dihydroartemisinin], the IC50 in test [1] was determined as 1250 nM.

For the molecule `CC1CCC2C(C)[C@@H](Oc3ccc(CC(=O)NCc4ccccc4)cc3)OC3OC4(C)CCC1C32OO4` (stereo partly drawn) [Example 48, (10S)—O-[4-[2-(benzylamino)-2-oxoethyl]phenyl]-dihydroartemisinin], the IC50 in test [1] (MCF-7 cells) came to 1400 nM.
